Test results reported in the NIST ThermoML archive (doi:10.1016/j.tca.2010.07.027).

Assays:
[1] = Liquid; for speed of sound / mass density: 101.33 kPa; for speed of sound: Linear variable-path acoustic interferometer; for mass density: Pycnometric method; for vapor or sublimation pressure: Closed cell (Static) method
[2] = xn = mol fraction of the nth substance listed; settings: 308.15 K, Liquid; for speed of sound: Frequency=2 MHz, Linear variable-path acoustic interferometer
[3] = excess molar enthalpy (molar enthalpy of mixing); xn = mol fraction of the nth substance listed; settings: 308.15 K, Liquid, 2-drop calorimeter

C1COCO1 [1,3-dioxolane]
[1]
Settings	mass density [kg/m3]	speed of sound [m/s]	vapor or sublimation pressure [kPa]
298.15 K	1047.2	1388	–
308.15 K	–	–	21.5

Cc1ccccc1N [2-methylaniline]
[1]
Settings	mass density [kg/m3]	speed of sound [m/s]	vapor or sublimation pressure [kPa]
298.15 K	994.2	1602	–
308.15 K	–	–	0.1067

Cc1ccccc1N [2-methylaniline] + C1COCO1
Settings	excess molar enthalpy [kcal/mol]	excess molar volume [m3/mol]	speed of sound [m/s]
[2], x2 = 0.0549	–	-8.4e-08	–
[2], x2 = 0.1122	–	–	1539
[2], x2 = 0.1721	–	-2.51e-07	–
[2], x2 = 0.1891	–	–	1526
[2], x2 = 0.2239	–	-3.12e-07	–
[2], x2 = 0.2413	–	–	1516
[2], x2 = 0.2769	–	-3.75e-07	–
[2], x2 = 0.2911	–	–	1506
[2], x2 = 0.3212	–	–	1500
[2], x2 = 0.351	–	-4.43e-07	–
[2], x2 = 0.4011	–	–	1484
[2], x2 = 0.4217	–	-4.86e-07	–
[2], x2 = 0.4513	–	–	1473
[2], x2 = 0.5518	–	-5.12e-07	–
[2], x2 = 0.5651	–	–	1444
[2], x2 = 0.5889	–	-5.12e-07	–
[2], x2 = 0.6218	–	-4.97e-07	–
[2], x2 = 0.6637	–	–	1415
[2], x2 = 0.6831	–	-4.66e-07	–
[2], x2 = 0.6989	–	–	1404
[2], x2 = 0.7512	–	–	1386
[2], x2 = 0.7523	–	-4.07e-07	–
[2], x2 = 0.8147	–	-3.28e-07	–
[2], x2 = 0.8319	–	–	1358
[2], x2 = 0.8916	–	-2.16e-07	–
[2], x2 = 0.9071	–	–	1330
[2], x2 = 0.9407	–	-1.23e-07	–
[2], x2 = 0.9713	–	–	1306
[3], x2 = 0.0754	-0.0527	–	–
[3], x2 = 0.1632	-0.111	–	–
[3], x2 = 0.2424	-0.155	–	–
[3], x2 = 0.3213	-0.188	–	–
[3], x2 = 0.4001	-0.209	–	–
[3], x2 = 0.4843	-0.217	–	–
[3], x2 = 0.5655	-0.208	–	–
[3], x2 = 0.6112	-0.198	–	–
[3], x2 = 0.6979	-0.166	–	–
[3], x2 = 0.7432	-0.145	–	–
[3], x2 = 0.808	-0.112	–	–
[3], x2 = 0.8831	-0.0672	–	–
[3], x2 = 0.9311	-0.039	–	–
[3], x2 = 0.9621	-0.0207	–	–

CNc1ccccc1 [N-methylaniline]
[1]
Settings	mass density [kg/m3]	speed of sound [m/s]	vapor or sublimation pressure [kPa]
298.15 K	982.4	1572	–
308.15 K	–	–	0.0667

CNc1ccccc1 [N-methylaniline] + C1COCO1
Settings	excess molar enthalpy [kcal/mol]	excess molar volume [m3/mol]	speed of sound [m/s]
[2], x2 = 0.0415	–	–	1521
[2], x2 = 0.0709	–	-1.8e-08	–
[2], x2 = 0.1211	–	–	1511
[2], x2 = 0.1771	–	-4.5e-08	–
[2], x2 = 0.2001	–	–	1501
[2], x2 = 0.2387	–	-6.3e-08	–
[2], x2 = 0.2754	–	–	1490
[2], x2 = 0.2958	–	-8e-08	–
[2], x2 = 0.3349	–	-8.8e-08	–
[2], x2 = 0.3512	–	–	1477
[2], x2 = 0.3916	–	-9.5e-08	–
[2], x2 = 0.4222	–	–	1463
[2], x2 = 0.4361	–	-1.02e-07	–
[2], x2 = 0.4912	–	-1.1e-07	–
[2], x2 = 0.4943	–	–	1447
[2], x2 = 0.5421	–	–	1436
[2], x2 = 0.5531	–	-1.12e-07	–
[2], x2 = 0.6213	–	–	1415
[2], x2 = 0.6272	–	-1.04e-07	–
[2], x2 = 0.6992	–	-9.3e-08	–
[2], x2 = 0.7003	–	–	1393
[2], x2 = 0.7417	–	-8.8e-08	–
[2], x2 = 0.7832	–	–	1367
[2], x2 = 0.8545	–	-5.1e-08	–
[2], x2 = 0.8632	–	–	1341
[2], x2 = 0.9011	–	–	1329
[2], x2 = 0.9213	–	-3e-08	–
[2], x2 = 0.9632	–	–	1307
[3], x2 = 0.0853	-0.0914	–	–
[3], x2 = 0.1423	-0.13	–	–
[3], x2 = 0.2533	-0.162	–	–
[3], x2 = 0.3765	-0.156	–	–
[3], x2 = 0.4531	-0.141	–	–
[3], x2 = 0.5123	-0.127	–	–
[3], x2 = 0.5976	-0.105	–	–
[3], x2 = 0.6432	-0.0927	–	–
[3], x2 = 0.7123	-0.0749	–	–
[3], x2 = 0.7943	-0.0561	–	–
[3], x2 = 0.8543	-0.0409	–	–
[3], x2 = 0.8912	-0.0321	–	–
[3], x2 = 0.9321	-0.0223	–	–
[3], x2 = 0.9721	-0.00894	–	–

Nc1ccccc1 [aniline]
[1], 298.15 K
Settings	mass density [kg/m3]	speed of sound [m/s]	vapor or sublimation pressure [kPa]
–	1017.2	1635	0.0933

Nc1ccccc1 [aniline] + C1COCO1
Settings	excess molar enthalpy [kcal/mol]	excess molar volume [m3/mol]	speed of sound [m/s]
[2], x2 = 0.0789	–	-1.34e-07	–
[2], x2 = 0.0812	–	–	1587
[2], x2 = 0.1132	–	-1.88e-07	–
[2], x2 = 0.1413	–	–	1576
[2], x2 = 0.2204	–	-3.3e-07	–
[2], x2 = 0.2212	–	–	1557
[2], x2 = 0.2916	–	–	1539
[2], x2 = 0.3111	–	-4.28e-07	–
[2], x2 = 0.3488	–	–	1523
[2], x2 = 0.4281	–	-4.97e-07	–
[2], x2 = 0.4621	–	–	1489
[2], x2 = 0.4916	–	-5.16e-07	–
[2], x2 = 0.5219	–	–	1470
[2], x2 = 0.523	–	-5.17e-07	–
[2], x2 = 0.5928	–	–	1447
[2], x2 = 0.5999	–	-4.93e-07	–
[2], x2 = 0.6342	–	-4.77e-07	–
[2], x2 = 0.6414	–	–	1431
[2], x2 = 0.7114	–	-4.18e-07	–
[2], x2 = 0.7131	–	–	1406
[2], x2 = 0.8001	–	–	1374
[2], x2 = 0.8202	–	-2.94e-07	–
[2], x2 = 0.8715	–	–	1347
[2], x2 = 0.8913	–	-1.9e-07	–
[2], x2 = 0.9213	–	–	1327
[2], x2 = 0.9233	–	-1.38e-07	–
[2], x2 = 0.9711	–	–	1307
[2], x2 = 0.9718	–	-5.25e-08	–
[3], x2 = 0.0613	-0.0386	–	–
[3], x2 = 0.1622	-0.0988	–	–
[3], x2 = 0.2241	-0.131	–	–
[3], x2 = 0.2774	-0.156	–	–
[3], x2 = 0.3503	-0.184	–	–
[3], x2 = 0.4231	-0.203	–	–
[3], x2 = 0.5511	-0.215	–	–
[3], x2 = 0.5812	-0.214	–	–
[3], x2 = 0.6223	-0.209	–	–
[3], x2 = 0.6816	-0.195	–	–
[3], x2 = 0.7519	-0.171	–	–
[3], x2 = 0.8127	-0.14	–	–
[3], x2 = 0.8928	-0.0887	–	–
[3], x2 = 0.9514	-0.0435	–	–
